Some results are limits rather than exact numbers.

For orientation: melting point means the temperature of the solid-liquid transition.

In turn, `CON=Cc1ccc2c(c1)ncn2-c1cccc(-c2ccncn2)c1` had a melting point of 180 to 182 °C.

`CC(C)(C)OC(=O)/C=C/c1ccnc(-c2nc(=O)c3ccccc3s2)c1` registered a melting point of 196 to 197 °C.

`CCOC(=O)C(CC(=O)c1ccc(Oc2ccc(Br)cc2)cc1)SC(C)=O` (stereo unspecified) had a melting point of 67 to 68.5 °C. `COc1ccc2c(c1)C(CCNC(C)=O)CC2` (stereo unspecified) showed a melting point of 73 to 74 °C. Molecule `CN1CCNC(=O)C1c1ccc([N+](=O)[O-])cc1` (stereo unspecified) had a melting point of 185 to 186 °C. In the case of `O=C1c2ccc([N+](=O)[O-])cc2CC1Br` (stereo unspecified), the melting point is 88.5 to 90.5 °C. For `COc1ccc(CC(C#N)c2cc(OC)c(OC)c(OC)c2)cc1` (stereo unspecified), the melting point fell in the range of 82 to 83 °C. `CC(=O)NCc1cccc(-c2nc(=O)c3ccccc3s2)n1` came in with a melting point of 199 to 200 °C. Molecule `Cc1c[nH]c(-c2ccc(F)cc2)c1-c1ccc(F)cc1` came in with a melting point of 126 to 127 °C. `CCOCCNC(=O)c1cc(C(=O)OC)c(O)c2ncc(Cc3ccc(F)cc3)cc12` displayed a melting point of 174 to 175 °C.

With `COc1cnc[nH]c1=O`, the melting point lay in the range of 206 to 208 °C. For `CS(=O)(=O)c1cc2[nH]c(=O)c(=O)n(C3CCCCC3)c2cc1-n1cccc1`, the melting point is more than 280 °C. In turn, `O=C(COc1ccccc1)N[C@@H](Cc1ccccc1)C(=O)CSCc1ccsc1` gave a melting point of 80 to 81 °C. Next, `CS(=O)(=O)n1ccc(-c2ccc(Oc3ccccc3)cc2)n1`: 136 °C; `CC1(C)C=C(c2ncccn2)c2cc(C#N)ccc2O1`: 108 to 110 °C. `Cc1cc(F)cnc1Cl`: the melting point was in the range of 38 to 40 °C.

Take `O=Cc1cccn1-c1ccccc1[N+](=O)[O-]`: the melting point was 119 to 122 °C. As for `Cn1nc(N)nc1NCCCOc1cccc2c(N3CCCCC3)nccc12`, the melting point is 173 °C. As to `CC1CCCN(c2nc(-n3cncn3)nc(Cl)c2-c2c(F)cc(F)cc2F)O1` (stereo unspecified), the melting point was in the range of 141 to 143 °C.

The molecule `Cn1cc(C2=C(c3cn(-c4ccccc4)c4ccccc34)C(=O)NC2=O)c2ccccc21` registered a melting point of 135 to 137 °C. Molecule `CC(=O)C(=O)CCCCCCOc1ccc(-c2ccccc2)cc1` showed a melting point of 110 to 111 °C.

In turn, `COC(=O)c1cocc1-n1c(OC)nn(C)c1=O` returned a melting point of 131 to 133 °C. For `CCCCCCC(C)(C)c1cc(O)c2c(c1)OCCC1=C2CC(C)CC1` (stereo unspecified), the melting point fell in the range of 134 to 136 °C.

On to `Cc1ccccc1-c1nn(C(C)C(=O)N(C)C)cc1Cl` (stereo unspecified), for which the melting point is 69 to 71.5 °C.

Take `CCCCc1ccc(NCc2ccc(N(C)C)cc2)cc1`: the melting point lay within 60 to 61 °C. For the molecule `CCOc1cc2c(cc1OC)C(c1cnc(OC)nc1)=N[C@@H]1CC[C@@H](O)C[C@H]21`, the melting point is 124 °C. Next, `CC(=O)N=C(O)c1cc(C(O)=NCCOC(C)=O)c(C(=O)O)cc1C(=O)O`: 176 to 178 °C; `CC(=O)NCc1ccc(CC[N+]2([O-])CCC(C3CCc4ccccc43)CC2)cc1` (stereo unspecified): 130 to 131 °C; `CCCCN(CCCC)CCCOc1ccc(S(=O)(=O)c2c(C(C)(C)C)cn3ccccc23)cc1`: 90 to 92 °C. Turning to `O=C(CCN1CCN(c2ccnc3ccccc23)CC1)c1csc2ccccc12`, the melting point lay in the range of 134 to 136 °C.

`C#CCOc1cc(-n2nc(CC)c(CC)c2CC)c(F)cc1Cl`: the melting point was in the range of 62 to 65 °C. The molecule `O=C1Nc2ccccc2SC1CCCl` (stereo unspecified) showed a melting point of 133 to 134 °C. Take `O=C(O)Cc1ccc(OCc2ccccc2)c(OCc2ccccc2)c1`: the melting point lay within 112 to 113 °C.

In turn, `COc1cc(C(C)=O)c(OC)c2c1C(C)(C)CCC2(C)C` gave a melting point of 97 °C. On to `CC(C)(C#N)c1cc(Cn2cnnc2)cc(C(C)(C)C#N)c1`, for which the melting point fell in the range of 158 to 161 °C. Molecule `Cc1cc2c(-c3ccccc3C)c(NC(=O)Nc3ccc(F)cc3F)c(=O)n(C)c2cc1C` gave a melting point of 225 to 226 °C.

Source of the values: a melting point compilation (Tetko et al.; mined from patent text by program, amines drawn as free bases though some values may be those of a salt).
